Test results taken from patent EP0123528B1, “Pharmaceutical composition for the treatment of hair loss” (Mortimer, Christopher Harry, Dr., priority 1983, dated 1984).

Assays:
common baldness in men = assay: Unit Area Trichogram (hair density); assay type: in vivo; settings: for producing hair growth in common baldness: alone: oestradiol benzoate 0.1%, medroxyprogesterone acetate 0.1%, 3,3-,5-triiodo-L-thyronine 20 pg in 3 ml of solution, or any two of the three
[1] = Hormone results during treatment; assay type: in vivo; settings: patient, after 6 months of systemic treatment
Description: Initially […] began treatment with medroxyprogesterone acetate starting with 5 mg daily increasing to 40 mg daily at 6 months.
At this time the following hormone results were obtained:
After 6 months of the same dose of systemic medroxyprogesterone acetate plus Trichogen II the following results were obtained: […]

[2] = Semen analysis during treatment; assay type: in vivo, patient; settings: after 6 months of systemic treatment
Description: Initially […] began treatment with medroxyprogesterone acetate starting with 5 mg daily increasing to 40 mg daily at 6 months. At this time the following hormone results were obtained: After 6 months of the same dose of systemic medroxyprogesterone acetate plus Trichogen II the following results were obtained: […]

## N[C@H](Cc1cc(I)c(Oc2ccc(O)c(I)c2)c(I)c1)C(=O)O [3,3-,5-triiodo-D-thyronine free acid, 3,3-,5-Triiodo-D-thyronine free acid]
Common baldness in men; topical, in any concentration
  substitute for the -L-form of 3,3-,5-triiodothyronine: not an effective substitute

## N[C@@H](Cc1cc(I)c(Oc2ccc(O)c(I)c2)c(I)c1)C(=O)O [3,3-,5-triiodo-L-thyronine]
Common baldness in men; topical
  producing hair growth in common baldness: not effective

## CC(=O)O[C@]1(C(C)=O)CC[C@H]2[C@@H]3C[C@H](C)C4=CC(=O)CC[C@]4(C)[C@H]3CC[C@@]21C [medroxyprogesterone acetate]
[1]; 5 mg daily increasing to 40 mg daily, n 10—32
  Testosterone: 27.0 nmol/L
[1]; 5 to 40 mg daily, n 0.7—2.7
  Dihydrotestosterone: 2.1 nmol/L
[1]; 5 to 40 mg daily, n 18—40
  SHBG: 36.0 nmol/L
[1]; 5 to 40 mg daily, n 50—180
  Oestradiol: 171.0 pmol/L
[1]; n 0.6—6.0
  17 Alpha hydroxyprogesterone: 10.1 nmol/L
[1]; n 3.1—10.0
  Androstenedione: 4.9 nmol/L
[1]; n 5—9
  Dehydroepiandrosterone sulphate (DHEAS): 9.4 µmol/L
Common baldness in men; patient, after 6 months of systemic treatment, before treatment 215, n 232—340
  Meaningful hair density (hairs greater than 40 µm in diameter/cm^2), Frontal: 179 (n 232—340) hairs/cm^2
Common baldness in men; patient, after 6 months of systemic treatment, before treatment 246, n 213—317
  Meaningful hair density (hairs greater than 40 µm in diameter/cm^2), Occipital: 271 (n 213—317) hairs/cm^2
Common baldness in men; patient, after 6 months of systemic treatment, before treatment 251, n 261—356
  Total hair density, Occipital: 280 (n 261—356) hairs/cm^2
Common baldness in men; patient, after 6 months of systemic treatment, before treatment 263, n 256—393
  Total hair density, Frontal: 248 (n 256—393) hairs/cm^2
Common baldness in men; topical
  producing hair growth in common baldness: not effective
[2]; patient (previous orchidopexy), n greater than 80 millions
  Semen analysis: Total count: 5 millions
[2]; patient, n greater than 60%
  Semen analysis: Motility: 10%
[2]; patient, n up to 25%
  Semen analysis: Abnormal forms: 35%

## C[C@]12CC[C@@H]3c4ccc(OC(=O)c5ccccc5)cc4CC[C@H]3[C@@H]1CC[C@@H]2O [oestradiol benzoate]
Common baldness in men; topical
  producing hair growth in common baldness: not effective
